The results in this text go back to US20110183978A1, “Phenylpyri(mi)dinylazoles” (Bayer CropScience AG, priority 2009, published 2011).

The data set can be described thus: physchem.

What is called chromatographic logP is lipophilicity estimated from chromatographic retention.

As for `Nc1cc(-c2cn(CC(F)F)nc2-c2ccc(F)cc2)ccn1` [[III-4], 4-[1-(2,2-Difluoroethyl)-3-(4-fluorophenyl)-1H-pyrazol-4-yl]pyridin-2-amine], the chromatographic logP by setting is: (pH 2.3, LogP (pH 2.3)) 1.03; (pH 2.7, logP (pH 2.7)) 1.03.
Take `Cn1cc(-c2ccnc(N)c2)c(-c2ccc(F)cc2)n1` [[III-5], 4-[3-(4-Fluorophenyl)-1-methyl-1H-pyrazol-4-yl]pyridin-2-amine]: the chromatographic logP came out at 0.71 (pH 2.3, LogP (pH 2.3)) and 0.71 (pH 2.7, logP (pH 2.7)).
Under “pH 2.7, logP (pH 2.7)”, `CC(C)n1cc(-c2ccnc(N)n2)c(-c2ccc(F)cc2)n1` [[III-a-1], 4-[3-(4-Fluorophenyl)-1-isopropyl-1H-pyrazol-4-yl]pyrimidin-2-amine] displayed a chromatographic logP of 1.54.
Still for that read-out and setting: for `CC(C)C(=O)Nc1cc(Br)ccn1` [[IV-c-1], N-(4-bromopyridin-2-yl)-2-methylpropanamide] the value was 2.09; for `Cc1[nH]nc(-c2ccc(F)cc2)c1-c1ccncc1` [[IX-b-1], 4-[3-(4-Fluorophenyl)-5-methyl-1H-pyrazol-4-yl]pyridine], 0.6; for `Fc1ccc(-c2[nH]nc(C3CC3)c2-c2ccncc2)cc1` [[IX-b-2], 4-[3-(4-Fluorophenyl)-5-cyclopropyl-1H-pyrazol-4-yl]pyridine], 0.92.
As to `Cn1cc(Br)c(-c2ccc(F)cc2)n1` [[V1-8], 4-Bromo-3-(4-fluorophenyl)-1-methyl-1H-pyrazole], the chromatographic logP (pH 2.7, logP (pH 2.7)) came to 2.86.
Take `CC(C)n1cc(B2OC(C)(C)C(C)(C)O2)c(-c2ccc(F)cc2)n1` [[V-1], 3-(4-Fluorophenyl)-1-isopropyl-4-(4,4,5,5-tetramethyl-1,3,2-dioxaborolan-2-yl)-1H-pyrazole]: the chromatographic logP stood at 4.46 (pH 2.3, LogP (pH 2.3)) and 4.51 (pH 2.7, logP (pH 2.7)).
On the same counts, the results for `COCCn1cc(B2OC(C)(C)C(C)(C)O2)c(-c2ccc(F)cc2)n1` [[V-2], 3-(4-Fluorophenyl)-1-(2-methoxyethyl)-4-(4,4,5,5-tetramethyl-1,3,2-dioxaborolan-2-yl)-1H-pyrazole] are 3.58 and 3.58.
As for `CC(C)Cn1cc(B2OC(C)(C)C(C)(C)O2)c(-c2ccc(F)cc2)n1` [[V-3], 3-(4-Fluorophenyl)-1-isobutyl-4-(4,4,5,5-tetramethyl-1,3,2-dioxaborolan-2-yl)-1H-pyrazole], the chromatographic logP by setting is: (pH 2.3, LogP (pH 2.3)) 4.89; (pH 2.7, logP (pH 2.7)) 4.76.
On the same counts, the results for `CC1(C)OB(c2cn(CC(F)F)nc2-c2ccc(F)cc2)OC1(C)C` [[V-4], 1-(2,2-difluoroethyl)-3-(4-fluorophenyl)-4-(4,4,5,5-tetramethyl-1,3,2-dioxaborolan-2-yl)-1H-pyrazole] are 3.84 and 3.84.
For `CC(C)On1cc(B2OC(C)(C)C(C)(C)O2)c(-c2ccc(F)cc2)n1` [[V-5], 3-(4-Fluorophenyl)-1-isopropoxy-4-(4,4,5,5-tetramethyl-1,3,2-dioxaborolan-2-yl)-1H-pyrazole], the chromatographic logP is, setting by setting: (pH 2.3, LogP (pH 2.3)) 4.81; (pH 2.7, logP (pH 2.7)) 4.81.
`CC1(C)OB(c2cn(OC3CCCC3)nc2-c2ccc(F)cc2)OC1(C)C` [[V-6], 1-(Cyclopentyloxy)-3-(4-fluorophenyl)-4-(4,4,5,5-tetramethyl-1,3,2-dioxaborolan-2-yl)-1H-pyrazole]: the chromatographic logP runs as follows: (pH 2.3, LogP (pH 2.3)) 5.51; (pH 2.7, logP (pH 2.7)) 5.51.
With `CC1(C)OB(c2cn(C3CC3)nc2-c2ccc(F)cc2)OC1(C)C` [[V-7], 1-Cyclopropyl-3-(4-fluorophenyl)-4-(4,4,5,5-tetramethyl-1,3,2-dioxaborolan-2-yl)-1H-pyrazole], the chromatographic logP by setting is: (pH 2.3, LogP (pH 2.3)) 3.47; (pH 2.7, logP (pH 2.7)) 3.47.
As for `CC1(C)OB(c2cn(CC3CC3)nc2-c2ccc(F)cc2)OC1(C)C` [[V-8], 1-(Cyclopropylmethyl)-3-(4-fluorophenyl)-4-(4,4,5,5-tetramethyl-1,3,2-dioxaborolan-2-yl)-1H-pyrazole], the chromatographic logP was 4.42 (pH 2.3, LogP (pH 2.3)) and 4.42 (pH 2.7, logP (pH 2.7)).
Regarding `Cn1cc(B2OC(C)(C)C(C)(C)O2)c(-c2ccc(F)cc2)n1` [[V-9], 3-(4-Fluorophenyl)-1-methyl-4-(4,4,5,5-tetramethyl-1,3,2-dioxaborolan-2-yl)-1H-pyrazole], the chromatographic logP runs as follows: (pH 2.3, LogP (pH 2.3)) 3.47; (pH 2.7, logP (pH 2.7)) 3.47.
As for `CC1(C)OB(c2cn(CCCl)nc2-c2ccc(F)cc2)OC1(C)C` [[V-10], 1-(2-Chloroethyl)-3-(4-fluorophenyl)-4-(4,4,5,5-tetramethyl-1,3,2-dioxaborolan-2-yl)-1H-pyrazole], the chromatographic logP came to 4.06 (pH 2.3, LogP (pH 2.3)) and 4.06 (pH 2.7, logP (pH 2.7)).
Regarding `CCn1cc(Br)c(-c2ccc(F)cc2)n1` [[VI-2], 4-Bromo-1-ethyl-3-(4-fluorophenyl)-1H-pyrazole], the chromatographic logP runs as follows: (pH 2.3, LogP (pH 2.3)) 3.32; (pH 2.7, logP (pH 2.7)) 3.37.
Regarding `CCn1ncc(Br)c1-c1ccc(F)cc1` [[VI-3], 4-Bromo-1-ethyl-5-(4-fluorophenyl)-1H-pyrazole], the chromatographic logP (pH 2.7, logP (pH 2.7)) stood at 3.15.
Regarding `CC(C)Cn1cc(Br)c(-c2ccc(F)cc2)n1` [[VI-4], 4-Bromo-3-(4-fluorophenyl)-1-isobutyl-1H-pyrazole], the chromatographic logP is, setting by setting: (pH 2.3, LogP (pH 2.3)) 4.34; (pH 2.7, logP (pH 2.7)) 4.34.
Regarding `CC(C)Cn1ncc(Br)c1-c1ccc(F)cc1` [[VI-5], 4-Bromo-5-(4-fluorophenyl)-1-isobutyl-1H-pyrazole], the chromatographic logP (pH 2.7, logP (pH 2.7)) was 4.04.
For `COCCn1cc(Br)c(-c2ccc(F)cc2)n1` [[VI-6], 4-Bromo-3-(4-fluorophenyl)-1-(2-methoxyethyl)-1H-pyrazole], the chromatographic logP is, setting by setting: (pH 2.3, LogP (pH 2.3)) 3.08; (pH 2.7, logP (pH 2.7)) 3.08.
With `COCCn1ncc(Br)c1-c1ccc(F)cc1` [[VI-7], 4-Bromo-5-(4-fluorophenyl)-1-(2-methoxyethyl)-1H-pyrazole], the chromatographic logP (pH 2.7, logP (pH 2.7)) was 2.9.
Turning to `CC(c1ccccc1F)n1cc(Br)c(-c2ccc(F)cc2)n1` (centres unmarked) [[VI-9], 4-bromo-3-(4-fluorophenyl)-1-[1-(2-fluorophenyl)ethyl]-1H-pyrazole], the chromatographic logP runs as follows: (pH 2.3, LogP (pH 2.3)) 4.77; (pH 2.7, logP (pH 2.7)) 3.63.
The like results for `Fc1ccc(-c2nn(CC3CC3(Cl)Cl)cc2Br)cc1` (centres unmarked) [[VI-10], 4-bromo-1-[(2,2-dichlorocyclopropyl)methyl]-3-(4-fluorophenyl)-1H-pyrazole] were, in that order, 4.43 and 4.43.
In the case of `CC(C)Cn1cc(Br)c(-c2ccc(F)c(C#N)c2)n1` [[VI-11], 5-(4-Bromo-1-isobutyl-1H-pyrazol-3-yl)-2-fluorobenzonitrile], the chromatographic logP is, setting by setting: (pH 2.3, LogP (pH 2.3)) 4.15; (pH 2.7, logP (pH 2.7)) 4.15.
On to `N#Cc1cccc(Cn2cc(Br)c(-c3ccc(F)cc3)n2)c1` [[VI-12], 3-{[4-Bromo-3-(4-fluorophenyl)-1H-pyrazol-1-yl]methyl}benzonitrile], for which the chromatographic logP was found to be 3.93 (pH 2.3, LogP (pH 2.3)) and 3.93 (pH 2.7, logP (pH 2.7)).
Take `Fc1ccc(-c2nn(Cc3ccccc3F)cc2Br)cc1` [[VI-13], 4-Bromo-1-(2-fluorobenzyl)-3-(4-fluorophenyl)-1H-pyrazole]: the chromatographic logP runs as follows: (pH 2.3, LogP (pH 2.3)) 4.39; (pH 2.7, logP (pH 2.7)) 4.39.
In the case of `CCCn1cc(Br)c(-c2ccc(F)cc2)n1` [[VI-14], 4-Bromo-3-(4-fluorophenyl)-1-propyl-1H-pyrazole], the chromatographic logP was 3.89 (pH 2.3, LogP (pH 2.3)) and 3.89 (pH 2.7, logP (pH 2.7)).
